Assay results taken from patent US20050261264A1, “Rare-earth ternary complex” (priority 2000, published 2005).

Key:
Type in all cases: physicochemical
[1] = Miscibility with solvents, visual evaluation at 5 wt %; set-up: key: ⊚: dissolves at room temperature; ◯: dissolves when heated for 5 minutes at 40° C.; Δ: dissolves under heating, but cooling precipitates crystals; X: does not dissolve; conditions: complex added at 5 wt %
Protocol: (§1) The miscibility of the rare earth complex with various media was evaluated as follows.
1) Miscibility with Solvents

[2] = Miscibility with a polymer matrix, visual evaluation; set-up: key to Miscibility, PMMA: ⊚: dissolves up to 30 wt %; ◯: dissolves up to 5 wt %; Δ: disperses up to 5 wt %, but there is turbidity; X: repelled at the polymer surface
Protocol: as §1
2) Miscibility with a Polymer Matrix
The rare earth complex serving as the sample was added in the concentrations listed with the evaluation criteria below relative to various media, and the miscibility was visually evaluated according to the following criteria. • ⊚: dissolves up to 30 wt % • ◯: dissolves up to 5 wt % • Δ: disperses up to 5 wt %, but there is turbidity • X: repelled at the polymer surface

[3] = Luminescence quantum yield and luminescence intensity in solution; conditions: acetonitrile solution; for Relative luminescence intensity: Eu 0.05 mol/L; for Luminescence quantum yield: europium ion 0.05 mol/L, excitation 465 nm, luminescence 612 nm
Protocol: (§2) The intensity of luminescence and the luminescence quantum yield, the quotient of dividing the number of photons emitted from a sample by the number of photons absorbed into the sample, were measured with an SS-25 from JASCO Corporation.
The luminescence quantum yield of an acetonitrile solution of the Eu(PMS)3(TPPO)8 obtained in Example 1 (europium ion concentration: 0.05 mol/L) was measured (excitation wavelength: 465 nm, maximum luminescence wavelength: 612 nm, luminescence wavelength used in measurement: 612 nm).
The solutions prepared in Examples 12 to 14 and Comparative Examples 7 to 9 and Comparative Example B were measured for luminescence intensity at the respective maximum luminescence wavelengths.
The relative luminescence intensity of the solutions used in Examples 12 to 14 and Comparative Example B: (luminescence intensity in each of Examples 12 to 14)/(luminescence intensity in Comparative Example 7) was calculated, letting 1 be the luminescence intensity in Comparative Example 7 (solution of a rare earth complex in which the ligand Z was not coordinated).
Similarly, the relative luminescence intensity in Comparative Example 9: (luminescence intensity in Comparative Example 9)/(luminescence intensity in Comparative Example 8) was calculated, letting 1 be the luminescence intensity in Comparative Example 8 (solution of a known β-diketone-type of rare earth complex in which the ligand Z was not coordinated). The relative luminescence intensity of the solution used in Comparative Example B was 1.6 times.
The luminescence quantum yield of an acetone-d6 solution of the Nd(PMS)3(TPPO)8 obtained in Example 2 (neodymium ion concentration: 0.05 mol/L) was measured (excitation wavelength: 585 nm, maximum luminescence wavelength: 1064 nm, luminescence wavelength used in measurement: 1064 nm).
The solutions prepared in Examples 15 and 16 and Comparative Examples 10 were measured for luminescence intensity at the respective maximum luminescence wavelengths. The relative luminescence intensity in Examples 15 and 16: (luminescence intensity in each of Examples 15 and 16)/(luminescence intensity in Comparative Example 10) was calculated, letting 1 be the luminescence intensity in Comparative Example 10 (rare earth complex in which the ligand Z was not coordinated).

[4] = Number of moles of bound water per mole of complex (TG-DTA); conditions: for Bound water (number of moles of bound water per mole of complex): Table 1, dried samples for the ternary complexes
Protocol: The number of moles of bound water per mole of complex was measured using a TG-DTA 2000 from MAC Science.
A 20 g quantity of Eu(PMS)3 was added to 100 mL of isopropanol, then 43 g ([…] the molar amount of the Eu(PMS)3) of triphenylphosphine oxide (hereinafter referred to as TPPO) was added, and the system was refluxed for 3 hours, and then gradually cooled. The resulting white powder was filtered off. The white powder thus obtained was washed with hot n-hexane, and recrystallized with water-methanol to obtain 44 g of Eu(PMS)3(TPPO)8 in the form of white acicular crystals (yield: 85%). The TG-DTA was measured for these crystals, and it was found from the weight reduction at 100° C. that the number of moles of bound water per mole of complex was 2.93. The IR, NMR, UV absorption characteristics, and elemental analysis results for the obtained Eu(PMS)3(TPPO)8(H2O)2.93 are given below.
Eu(PMS)3(TPPO)8(H2O)2.93 obtained by the above synthesis method was dried in vacuo for 3 hours at 140° C. and a reduced pressure of […]. TG-DTA measurement for the resulting white powder was carried out to obtain a weight reduction at 100° C. It was found from the obtained value that the number of moles of bound water per mole of complex was 0.18.

[5] = Luminescence quantum yield and luminescence intensity in PMMA polymer matrix composition; conditions: PMMA rod
Protocol: as §2
A 1 mL quantity of refined anhydrous methyl methacrylate (MMA), 0.5 mg of AIBN, and 148 mg (0.7 wt %) as the rare earth ion concentration) of the Eu (PMS)3 (TPPO)8 obtained in Example 1 were mixed, the mixture was transferred to a Pyrex tube, and the inside of the tube was deaerated and then sealed. By reacting for 5 hours at 60° C., the polymerization of MMA was carried out. The resulting PMMA containing Eu(PMS)3 (TPPO)8 was taken out of the Pyrex tube, and a rod-shaped polymer matrix composition was obtained.
(§3) The polymer matrix compositions prepared in Examples 17 to 19 and Comparative Example 11 were measured for luminescence intensity at the respective maximum luminescence wavelengths. The relative luminescence intensity in Examples 17 to 19: (luminescence intensity in each of Examples 17 to 19)/(luminescence intensity in Comparative Example 11) was calculated, letting 1 be the luminescence intensity in Comparative Example 11 (rare earth complex in which the ligand Z was not coordinated).
A rod-shaped polymer matrix composition containing […] was obtained in the same manner as in Example 17, except that 148 mg (rare earth ion concentration: 0.7 wt %) of the Nd(PMS)3 (TPPO)8 obtained in Example 2 was used instead of Eu(PMS)3 (TPPO)8.
as §3, with “20 and 21” for “17 to 19”, “12” for “11”, “20 and 21:” for “17 to 19:”, “20 and 21)/(luminescence” for “17 to 19)/(luminescence”, “12)” for “11)”

[6] = relative to Eu(PMS)3 (Comparative Example 7) = 1
[7] = after drying in vacuo at 140° C.
[8] = before drying (crystals as obtained), weight reduction at 100° C.
[9] = relative to Eu(HFA)3 (Comparative Example 8) = 1

| SMILES | Miscibility, Acetone [1] | Miscibility, Chloroform [1] | Miscibility, Toluene [1] | Miscibility, Water [1] | Miscibility, Epoxy resin [2] | Miscibility, Nafion [2] | Miscibility, PMMA [2] | Relative luminescence intensity [3, 6] | Luminescence quantum yield [3] [%] | Bound water (number of moles of bound water per mole of complex) [4] | Number of moles of bound water per mole of complex [4, 7] | Number of moles of bound water per mole of complex [4, 8] | Relative luminescence intensity ([5]; Eu 0.7 wt %, relative to Eu(PMS)3 (Comparative Example 11) = 1) | Luminescence quantum yield ([5]; rare earth ion 0.7 wt %, excitation 465 nm, luminescence 612 nm) [%] | Relative luminescence intensity [3, 9] |
| --- | --- | --- | --- | --- | --- | --- | --- | --- | --- | --- | --- | --- | --- | --- | --- |
| O=P(c1ccccc1)(c1ccccc1)c1ccccc1.O=P(c1ccccc1)(c1ccccc1)c1ccccc1.O=P(c1ccccc1)(c1ccccc1)c1ccccc1.O=P(c1ccccc1)(c1ccccc1)c1ccccc1.O=P(c1ccccc1)(c1ccccc1)c1ccccc1.O=P(c1ccccc1)(c1ccccc1)c1ccccc1.O=P(c1ccccc1)(c1ccccc1)c1ccccc1.O=P(c1ccccc1)(c1ccccc1)c1ccccc1.O=S(=O)([N-]S(=O)(=O)C(F)(F)F)C(F)(F)F.O=S(=O)([N-]S(=O)(=O)C(F)(F)F)C(F)(F)F.O=S(=O)([N-]S(=O)(=O)C(F)(F)F)C(F)(F)F.[Eu+3] [Eu(PMS)3(TPPO)8] | ⊚ | ⊚ | ◯ | X | ◯ (dissolves up to 5 wt %) | ◯ (dissolves up to 5 wt %) | ◯ (dissolves up to 5 wt %) | 45.1 | 5.6 | 0.18 | 0.18 | 2.93 | 15466 | 19.0 |  |
| O=C(C=C([O-])C(F)(F)F)C(F)(F)F.O=C(C=C([O-])C(F)(F)F)C(F)(F)F.O=C(C=C([O-])C(F)(F)F)C(F)(F)F.[Eu+3] [Eu(HFA)3, reference compound] | ⊚ | X | X | X | ◯ (dissolves up to 5 wt %) | Δ (disperses up to 5 wt %, but there is turbidity) | X |  | 8.0 | 2.00 |  |  |  |  | 1.0 |
| O=S(=O)([N-]S(=O)(=O)C(F)(F)F)C(F)(F)F.O=S(=O)([N-]S(=O)(=O)C(F)(F)F)C(F)(F)F.O=S(=O)([N-]S(=O)(=O)C(F)(F)F)C(F)(F)F.[2H]C([2H])([2H])S(=O)C([2H])([2H])[2H].[2H]C([2H])([2H])S(=O)C([2H])([2H])[2H].[2H]C([2H])([2H])S(=O)C([2H])([2H])[2H].[2H]C([2H])([2H])S(=O)C([2H])([2H])[2H].[2H]C([2H])([2H])S(=O)C([2H])([2H])[2H].[2H]C([2H])([2H])S(=O)C([2H])([2H])[2H].[2H]C([2H])([2H])S(=O)C([2H])([2H])[2H].[2H]C([2H])([2H])S(=O)C([2H])([2H])[2H].[Eu+3] [Eu(PMS)3 (DMSO-d6)8, reference compound] |  |  |  |  |  |  |  | 1.6 | 44.0 |  |  |  |  |  |  |
| O=P(c1ccccc1)(c1ccccc1)c1ccccc1.O=P(c1ccccc1)(c1ccccc1)c1ccccc1.O=P(c1ccccc1)(c1ccccc1)c1ccccc1.O=P(c1ccccc1)(c1ccccc1)c1ccccc1.O=P(c1ccccc1)(c1ccccc1)c1ccccc1.O=P(c1ccccc1)(c1ccccc1)c1ccccc1.O=P(c1ccccc1)(c1ccccc1)c1ccccc1.O=P(c1ccccc1)(c1ccccc1)c1ccccc1.O=S(=O)([N-]S(=O)(=O)C(F)(F)F)C(F)(F)F.O=S(=O)([N-]S(=O)(=O)C(F)(F)F)C(F)(F)F.O=S(=O)([N-]S(=O)(=O)C(F)(F)F)C(F)(F)F.[Tb+3] [Tb(PMS)3(TPPO)8] | ⊚ | ⊚ | ◯ | X | ◯ (dissolves up to 5 wt %) | ◯ (dissolves up to 5 wt %) | ◯ (dissolves up to 5 wt %) |  |  | 0.08 | 0.08 | 1.27 |  |  |  |
| O=C(C=C([O-])C(F)(F)F)C(F)(F)F.O=C(C=C([O-])C(F)(F)F)C(F)(F)F.O=C(C=C([O-])C(F)(F)F)C(F)(F)F.O=P(c1ccccc1)(c1ccccc1)c1ccccc1.O=P(c1ccccc1)(c1ccccc1)c1ccccc1.[Nd+3] [Nd(HFA)3(TPPO)2, reference compound] | ⊚ | ◯ | ◯ | X | ◯ (dissolves up to 5 wt %) | Δ (disperses up to 5 wt %, but there is turbidity) | Δ (disperses up to 5 wt %, but there is turbidity) |  |  | 0.00 |  |  |  |  |  |
| O=C(C=C([O-])C(F)(F)F)C(F)(F)F.O=C(C=C([O-])C(F)(F)F)C(F)(F)F.O=C(C=C([O-])C(F)(F)F)C(F)(F)F.O=P(c1ccccc1)(c1ccccc1)c1ccccc1.O=P(c1ccccc1)(c1ccccc1)c1ccccc1.[Eu+3] [Eu(HFA)3(TPPO)2, reference compound] | ⊚ | ◯ | ◯ | X | ◯ (dissolves up to 5 wt %) | Δ (disperses up to 5 wt %, but there is turbidity) | Δ (disperses up to 5 wt %, but there is turbidity) |  |  | 0.00 |  |  |  |  | 4.6 |
